Values of other authors, collected in US20260272826A1 (THEAPRIN PHARMACEUTICALS, INC., priority 2017, published 2026).

Tests used:
[1] = tribasic
[2] = test system: thrombin stimulated thromboxane formulation in whole blood; conditions: theanine by itself
rats = conditions: rat, in vivo

| Compound | pKa 1 ([1]; first of pKa 1-3) | pKa 2 ([1]; second of pKa 1-3) | pKa 3 ([1]; third of pKa 1-3) | solubility in water | inhibition of thrombin stimulated thromboxane formulation [2] | LD50 toxicity (rats) |
| --- | --- | --- | --- | --- | --- | --- |
| O=C(O)CC(O)(CC(=O)O)C(=O)O [Citric Acid, 2-hydroxypropane-1,2,3-tricarboxylic acid] | 5.21 | 4.28 | 2.92 | – | – | – |
| CCNC(=O)CC[C@H](N)C(=O)O [L-theanine, N-ethyl-L-glutamine] | – | – | – | soluble in water | potent inhibitor | > 5000 mg/kg |
